Experimental data taken from patent publication US10913744B2, “LRRK2 inhibitors and methods of making and using the same” (Dana-Farber Cancer Institute, Inc., priority 2015, dated 2021).
Where two headings read alike, the source gives them in different places.

What was measured:
[1] = biological target: RSK4 (Kin.Dom.2-C-terminal) (Homo sapiens (Human), UniProt Q9UK32); experiment: KinomeScan; format: binding; conditions: 1 uM
IRAK4 = IRAK4 (Homo sapiens (Human), UniProt Q9NWZ3); experiment: Dundee profiling
MNK1 = MNK1 (Homo sapiens (Human), UniProt Q9BUB5); experiment: Dundee profiling
WNK1 = WNK1 (Homo sapiens (Human), UniProt Q9H4A3); experiment: KinomeScan; format: binding; conditions: 1 uM
BTK = BTK (Homo sapiens (Human), UniProt Q06187); experiment: KinomeScan; format: binding; conditions: 1 uM
TTBK1 = TTBK1 (Homo sapiens (Human), UniProt Q5TCY1); experiment: Dundee profiling
MST1 = MST1 (Homo sapiens (Human), UniProt Q13043); experiment: KinomeScan; format: binding; conditions: 1 uM
LZK = LZK (Homo sapiens (Human), UniProt O43283); experiment: KinomeScan; format: binding; conditions: 1 uM
PKCz = PKCz (Homo sapiens (Human), UniProt Q05513); experiment: Dundee profiling
ARK5 = ARK5 (Homo sapiens (Human), UniProt O60285); experiment: KinomeScan; format: binding; conditions: 1 uM
EGFR (G719C) = EGFR (G719C) (Homo sapiens (Human), UniProt P00533, G719C); experiment: KinomeScan; format: binding; conditions: 1 uM
EGFR (G719S) = EGFR (G719S) (Homo sapiens (Human), UniProt P00533, G719S); experiment: KinomeScan; format: binding; conditions: 1 uM
Aurora B = Aurora B (Homo sapiens (Human), UniProt Q96GD4); experiment: Dundee profiling
TAO1 = TAO1 (Homo sapiens (Human), UniProt Q7L7X3); experiment: Dundee profiling
MINK1 = MINK1 (Homo sapiens (Human), UniProt Q8N4C8); experiment: Dundee profiling
S6K1 = S6K1 (Homo sapiens (Human), UniProt P23443); experiment: Dundee profiling
MNK2 = MNK2 (Homo sapiens (Human), UniProt Q9HBH9); experiment: Dundee profiling
MST2 = MST2 (Homo sapiens (Human), UniProt Q13188); experiment: Dundee profiling
EPH-B3 = EPH-B3 (Homo sapiens (Human), UniProt P54753); experiment: Dundee profiling
CK1δ = CK1δ (Homo sapiens (Human), UniProt P48730); experiment: Dundee profiling
JAK2 = JAK2 (Homo sapiens (Human), UniProt O60674); experiment: Dundee profiling
CDK11 = CDK11 (Homo sapiens (Human), UniProt Q9BWU1); experiment: KinomeScan; format: binding; conditions: 1 uM
PIP5K1C = PIP5K1C (Homo sapiens (Human), UniProt O60331); experiment: KinomeScan; format: binding; conditions: 1 uM
MAPKAP-K3 = MAPKAP-K3 (Homo sapiens (Human), UniProt Q16644); experiment: Dundee profiling
PRK2 = PRK2 (Homo sapiens (Human), UniProt Q16513); experiment: Dundee profiling
CHEK1 = CHEK1 (Homo sapiens (Human), UniProt O14757); experiment: KinomeScan; format: binding; conditions: 1 uM
IKKe = IKKe (Homo sapiens (Human), UniProt Q14164); experiment: Dundee profiling
MARK1 = MARK1 (Homo sapiens (Human), UniProt Q9P0L2); experiment: Dundee profiling
BRSK2 = BRSK2 (Homo sapiens (Human), UniProt Q8IWQ3); experiment: Dundee profiling
IRAK1 = IRAK1 (Homo sapiens (Human), UniProt P51617); experiment: Dundee profiling
ERK5 = ERK5 (Homo sapiens (Human), UniProt Q13164); experiment: Dundee profiling
CDK9-Cyclin T1 = CDK9-Cyclin T1 (Homo sapiens (Human), UniProt P50750); experiment: Dundee profiling
TTBK2 = TTBK2 (Homo sapiens (Human), UniProt Q6IQ55); experiment: Dundee profiling
ERK2 = ERK2 (Homo sapiens (Human), UniProt P28482); experiment: Dundee profiling
[2] = read-out: percent remaining enzymatic activity
[3] = read-out: percent remaining enzymatic activity, I1, 1 μM
[4] = read-out: percent remaining enzymatic activity, I10

Chain of MINK1 (Q8N4C8 whole entry, species assumed): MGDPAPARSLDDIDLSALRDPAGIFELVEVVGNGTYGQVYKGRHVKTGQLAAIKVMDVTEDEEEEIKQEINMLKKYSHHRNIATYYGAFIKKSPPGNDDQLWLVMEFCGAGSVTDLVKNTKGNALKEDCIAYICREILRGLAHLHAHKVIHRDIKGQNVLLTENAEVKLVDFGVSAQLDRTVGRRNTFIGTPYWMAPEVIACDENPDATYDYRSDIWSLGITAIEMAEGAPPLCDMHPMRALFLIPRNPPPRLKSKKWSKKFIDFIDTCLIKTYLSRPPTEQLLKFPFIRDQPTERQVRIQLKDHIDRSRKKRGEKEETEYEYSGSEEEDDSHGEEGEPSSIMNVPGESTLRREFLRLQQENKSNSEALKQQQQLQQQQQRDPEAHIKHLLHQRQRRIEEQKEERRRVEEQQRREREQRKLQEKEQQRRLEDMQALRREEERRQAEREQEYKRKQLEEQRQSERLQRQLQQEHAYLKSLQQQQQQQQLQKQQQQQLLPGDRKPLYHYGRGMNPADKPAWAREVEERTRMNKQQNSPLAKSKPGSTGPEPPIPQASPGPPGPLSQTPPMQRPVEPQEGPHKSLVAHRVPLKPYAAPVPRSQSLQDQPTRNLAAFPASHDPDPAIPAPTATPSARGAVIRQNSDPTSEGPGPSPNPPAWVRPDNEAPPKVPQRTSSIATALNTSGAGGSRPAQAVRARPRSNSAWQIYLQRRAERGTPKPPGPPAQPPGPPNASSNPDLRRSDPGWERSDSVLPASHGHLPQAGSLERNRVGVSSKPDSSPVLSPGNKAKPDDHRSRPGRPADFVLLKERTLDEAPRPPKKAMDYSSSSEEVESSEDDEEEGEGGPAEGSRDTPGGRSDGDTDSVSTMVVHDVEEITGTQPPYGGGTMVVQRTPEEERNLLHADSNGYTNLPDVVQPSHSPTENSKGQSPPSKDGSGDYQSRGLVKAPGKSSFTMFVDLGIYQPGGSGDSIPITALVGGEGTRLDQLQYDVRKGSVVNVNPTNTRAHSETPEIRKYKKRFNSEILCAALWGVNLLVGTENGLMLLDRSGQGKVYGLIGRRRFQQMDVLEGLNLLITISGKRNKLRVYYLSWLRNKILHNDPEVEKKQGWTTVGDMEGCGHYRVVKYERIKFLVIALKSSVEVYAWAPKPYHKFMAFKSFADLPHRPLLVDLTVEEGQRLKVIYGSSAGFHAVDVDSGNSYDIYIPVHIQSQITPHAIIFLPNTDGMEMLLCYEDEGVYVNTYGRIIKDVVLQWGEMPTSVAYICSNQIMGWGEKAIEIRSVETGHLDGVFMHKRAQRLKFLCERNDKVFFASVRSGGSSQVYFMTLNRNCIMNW
Chain of S6K1 (P23443 whole entry, looked up, species assumed): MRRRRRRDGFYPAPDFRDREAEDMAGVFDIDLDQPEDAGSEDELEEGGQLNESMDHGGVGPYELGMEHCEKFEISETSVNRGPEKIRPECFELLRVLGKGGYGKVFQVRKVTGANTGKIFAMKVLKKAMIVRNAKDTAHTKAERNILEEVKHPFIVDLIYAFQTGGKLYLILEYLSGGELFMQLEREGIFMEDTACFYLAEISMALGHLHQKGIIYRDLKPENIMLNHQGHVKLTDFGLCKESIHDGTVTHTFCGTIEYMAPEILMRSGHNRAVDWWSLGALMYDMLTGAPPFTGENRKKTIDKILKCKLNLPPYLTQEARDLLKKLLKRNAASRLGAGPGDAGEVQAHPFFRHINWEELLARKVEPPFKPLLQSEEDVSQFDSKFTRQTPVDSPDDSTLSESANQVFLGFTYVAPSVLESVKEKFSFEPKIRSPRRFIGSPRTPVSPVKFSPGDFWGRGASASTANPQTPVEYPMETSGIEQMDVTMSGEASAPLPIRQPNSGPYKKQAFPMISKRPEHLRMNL
Chain of IRAK4 (Q9NWZ3 whole entry, looked up, species assumed): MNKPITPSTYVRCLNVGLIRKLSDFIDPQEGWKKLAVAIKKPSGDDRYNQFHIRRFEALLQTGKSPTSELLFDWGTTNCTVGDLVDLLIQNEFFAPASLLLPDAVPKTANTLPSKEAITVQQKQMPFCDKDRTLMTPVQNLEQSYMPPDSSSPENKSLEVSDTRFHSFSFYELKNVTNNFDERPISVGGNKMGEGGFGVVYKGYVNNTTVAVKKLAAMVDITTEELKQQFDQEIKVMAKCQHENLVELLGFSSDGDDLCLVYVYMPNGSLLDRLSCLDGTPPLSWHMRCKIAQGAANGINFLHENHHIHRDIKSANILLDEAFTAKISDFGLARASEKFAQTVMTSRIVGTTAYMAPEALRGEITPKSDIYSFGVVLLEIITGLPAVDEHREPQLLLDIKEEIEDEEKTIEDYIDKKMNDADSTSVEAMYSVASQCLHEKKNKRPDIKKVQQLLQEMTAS
Chain of TTBK1 (Q5TCY1 whole entry, species assumed): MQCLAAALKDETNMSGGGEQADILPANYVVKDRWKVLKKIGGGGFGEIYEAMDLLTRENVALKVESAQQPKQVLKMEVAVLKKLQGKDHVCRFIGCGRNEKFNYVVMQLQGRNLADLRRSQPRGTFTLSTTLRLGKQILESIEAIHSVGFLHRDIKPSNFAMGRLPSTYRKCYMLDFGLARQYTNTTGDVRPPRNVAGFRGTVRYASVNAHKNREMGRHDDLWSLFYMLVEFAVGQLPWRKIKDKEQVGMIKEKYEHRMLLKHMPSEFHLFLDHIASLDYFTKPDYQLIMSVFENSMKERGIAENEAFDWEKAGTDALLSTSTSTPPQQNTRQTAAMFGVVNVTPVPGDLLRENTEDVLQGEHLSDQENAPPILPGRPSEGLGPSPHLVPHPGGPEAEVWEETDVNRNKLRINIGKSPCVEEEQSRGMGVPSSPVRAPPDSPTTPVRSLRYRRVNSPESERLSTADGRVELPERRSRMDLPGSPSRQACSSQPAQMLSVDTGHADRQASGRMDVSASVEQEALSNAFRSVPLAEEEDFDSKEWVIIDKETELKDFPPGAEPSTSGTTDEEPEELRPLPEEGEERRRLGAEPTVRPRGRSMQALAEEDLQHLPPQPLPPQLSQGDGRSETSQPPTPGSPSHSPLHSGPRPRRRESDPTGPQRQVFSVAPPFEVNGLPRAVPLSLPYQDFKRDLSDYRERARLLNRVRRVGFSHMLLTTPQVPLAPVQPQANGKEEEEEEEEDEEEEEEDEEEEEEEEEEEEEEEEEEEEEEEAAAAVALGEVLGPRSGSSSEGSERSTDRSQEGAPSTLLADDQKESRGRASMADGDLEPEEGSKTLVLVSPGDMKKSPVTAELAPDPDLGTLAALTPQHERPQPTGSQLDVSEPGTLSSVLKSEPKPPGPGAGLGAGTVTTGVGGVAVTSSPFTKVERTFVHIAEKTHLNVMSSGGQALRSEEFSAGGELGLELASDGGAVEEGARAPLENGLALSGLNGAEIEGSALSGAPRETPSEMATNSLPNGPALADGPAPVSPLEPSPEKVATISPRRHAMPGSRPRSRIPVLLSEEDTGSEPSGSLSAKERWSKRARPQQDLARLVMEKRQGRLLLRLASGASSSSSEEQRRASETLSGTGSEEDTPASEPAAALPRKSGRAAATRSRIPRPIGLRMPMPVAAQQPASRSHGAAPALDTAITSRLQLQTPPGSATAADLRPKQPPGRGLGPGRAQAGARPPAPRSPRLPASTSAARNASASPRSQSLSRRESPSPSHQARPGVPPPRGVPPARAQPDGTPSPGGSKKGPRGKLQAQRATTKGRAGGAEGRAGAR
Chain of TTBK2 (Q6IQ55 whole entry, species assumed): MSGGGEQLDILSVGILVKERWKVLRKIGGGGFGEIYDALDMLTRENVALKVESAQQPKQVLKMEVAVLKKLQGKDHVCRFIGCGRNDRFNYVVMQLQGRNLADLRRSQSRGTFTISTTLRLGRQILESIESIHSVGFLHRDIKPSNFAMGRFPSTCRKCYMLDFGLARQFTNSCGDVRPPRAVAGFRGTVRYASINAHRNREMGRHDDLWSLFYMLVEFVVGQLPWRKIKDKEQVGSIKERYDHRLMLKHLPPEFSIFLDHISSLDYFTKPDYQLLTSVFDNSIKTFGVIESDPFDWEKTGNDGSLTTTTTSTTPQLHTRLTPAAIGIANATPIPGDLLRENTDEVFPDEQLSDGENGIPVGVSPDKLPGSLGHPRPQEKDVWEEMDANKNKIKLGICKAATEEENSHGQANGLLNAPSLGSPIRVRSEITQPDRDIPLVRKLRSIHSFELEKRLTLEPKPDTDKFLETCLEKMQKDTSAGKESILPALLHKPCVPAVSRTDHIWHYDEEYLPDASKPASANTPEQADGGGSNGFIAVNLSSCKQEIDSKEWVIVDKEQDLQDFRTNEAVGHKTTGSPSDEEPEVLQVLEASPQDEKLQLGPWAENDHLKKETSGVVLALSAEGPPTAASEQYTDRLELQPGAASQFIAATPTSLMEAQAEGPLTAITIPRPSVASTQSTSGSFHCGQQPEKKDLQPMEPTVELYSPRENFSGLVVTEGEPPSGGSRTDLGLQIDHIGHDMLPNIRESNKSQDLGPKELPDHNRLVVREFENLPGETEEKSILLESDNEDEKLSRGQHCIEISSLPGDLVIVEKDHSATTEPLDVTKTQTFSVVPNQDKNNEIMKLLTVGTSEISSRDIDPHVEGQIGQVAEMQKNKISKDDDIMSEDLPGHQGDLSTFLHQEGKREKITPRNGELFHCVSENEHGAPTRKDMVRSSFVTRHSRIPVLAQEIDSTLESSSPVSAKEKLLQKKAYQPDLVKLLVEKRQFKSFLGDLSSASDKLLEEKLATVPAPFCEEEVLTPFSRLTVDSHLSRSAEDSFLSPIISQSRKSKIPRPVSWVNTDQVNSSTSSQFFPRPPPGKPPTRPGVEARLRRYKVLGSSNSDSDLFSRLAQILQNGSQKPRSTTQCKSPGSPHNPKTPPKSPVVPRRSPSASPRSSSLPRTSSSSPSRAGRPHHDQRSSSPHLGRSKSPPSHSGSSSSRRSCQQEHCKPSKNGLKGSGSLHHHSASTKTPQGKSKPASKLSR

Q: CNc1nc(Nc2ccc(C(=O)N3CCOCC3)cc2OC)nc2[nH]cc(Cl)c12 [Compound 18, (4-((5-chloro-4-(methylamino)-7H-pyrrolo[2,3-d]pyrimidin-2-yl)amino)-3-methoxyphenyl)(morpholino)methanone] was tested. Which KinomeScan value [1] did it give?
A: 90

Q: What about the “percent remaining enzymatic activity” value (IRAK4; I10) of the same compound?
A: 82%

Q: And the remaining activity at 1 µM (IRAK4; [2])?
A: 95%

Q: And the remaining activity at 1 µM (MNK1; [3])?
A: 102%

Q: What about the remaining activity at 1 µM (MNK1; [4]) of the same compound?
A: 78%

Q: And the KinomeScan value (WNK1)?
A: 95

Q: And the KinomeScan value (BTK)?
A: 100

Q: And the remaining activity at 1 µM (TTBK1; [3])?
A: 103%

Q: What about the remaining activity at 1 µM (TTBK1; [4]) of the same compound?
A: 98%

Q: What about the KinomeScan value (MST1) of the same compound?
A: 100

Q: What about the KinomeScan value (LZK) of the same compound?
A: 92

Q: What about the remaining activity at 1 µM (PKCz; [3]) of the same compound?
A: 76%

Q: What about the remaining activity at 1 µM (PKCz; [4]) of the same compound?
A: 94%

Q: And the KinomeScan value (ARK5)?
A: 89

Q: What about the KinomeScan value (EGFR (G719C)) of the same compound?
A: 91

Q: What about the KinomeScan value (EGFR (G719S)) of the same compound?
A: 88

Q: What about the remaining activity at 1 µM (Aurora B; [3]) of the same compound?
A: 97%

Q: What about the remaining activity at 1 µM (Aurora B; [4]) of the same compound?
A: 90%

Q: And the remaining activity at 1 µM (TAO1; [3])?
A: 113%

Q: And the remaining activity at 1 µM (TAO1; [4])?
A: 100%

Q: What about the remaining activity at 1 µM (MINK1; [3]) of the same compound?
A: 95%

Q: What about the remaining activity at 1 µM (MINK1; [4]) of the same compound?
A: 68%

Q: And the remaining activity at 1 µM (S6K1; [3])?
A: 106%

Q: And the remaining activity at 1 µM (S6K1; [4])?
A: 102%

Q: And the remaining activity at 1 µM (MNK2; [3])?
A: 75%

Q: And the remaining activity at 1 µM (MNK2; [4])?
A: 25%

Q: What about the remaining activity at 1 µM (MST2; [3]) of the same compound?
A: 90%

Q: What about the remaining activity at 1 µM (MST2; [4]) of the same compound?
A: 82%

Q: And the “percent remaining enzymatic activity” value (EPH-B3; I1, 1 μM)?
A: 92%

Q: What about the remaining activity at 1 µM (EPH-B3; [2]) of the same compound?
A: 92%

Q: And the remaining activity at 1 µM (CK1δ; [3])?
A: 74%

Q: What about the remaining activity at 1 µM (CK1δ; [4]) of the same compound?
A: 33%

Q: What about the “percent remaining enzymatic activity” value (JAK2; I10) of the same compound?
A: 97%

Q: What about the remaining activity at 1 µM (JAK2; [2]) of the same compound?
A: 99%

Q: What about the KinomeScan value (CDK11) of the same compound?
A: 63

Q: And the KinomeScan value (PIP5K1C)?
A: 100

Q: What about the remaining activity at 1 µM (MAPKAP-K3; [3]) of the same compound?
A: 97%

Q: What about the remaining activity at 1 µM (MAPKAP-K3; [4]) of the same compound?
A: 84%

Q: What about the remaining activity at 1 µM (PRK2; [3]) of the same compound?
A: 103%

Q: What about the remaining activity at 1 µM (PRK2; [4]) of the same compound?
A: 93%

Q: And the KinomeScan value (CHEK1)?
A: 100

Q: And the remaining activity at 1 µM (IKKe; [3])?
A: 114%

Q: And the remaining activity at 1 µM (IKKe; [4])?
A: 98%

Q: What about the remaining activity at 1 µM (MARK1; [3]) of the same compound?
A: 89%

Q: And the remaining activity at 1 µM (MARK1; [4])?
A: 77%

Q: What about the remaining activity at 1 µM (BRSK2; [3]) of the same compound?
A: 110%

Q: What about the remaining activity at 1 µM (BRSK2; [4]) of the same compound?
A: 98%

Q: What about the remaining activity at 1 µM (IRAK1; [3]) of the same compound?
A: 109%

Q: And the remaining activity at 1 µM (IRAK1; [4])?
A: 92%

Q: What about the remaining activity at 1 µM (ERK5; [3]) of the same compound?
A: 76%

Q: And the remaining activity at 1 µM (ERK5; [4])?
A: 52%

Q: And the remaining activity at 1 µM (CDK9-Cyclin T1; [3])?
A: 105%

Q: And the remaining activity at 1 µM (CDK9-Cyclin T1; [4])?
A: 91%

Q: What about the “percent remaining enzymatic activity” value (TTBK2; I10) of the same compound?
A: 90%

Q: And the remaining activity at 1 µM (TTBK2; [2])?
A: 105%

Q: What about the remaining activity at 1 µM (ERK2; [3]) of the same compound?
A: 94%

Q: And the remaining activity at 1 µM (ERK2; [4])?
A: 71%
